The target in one data set is human BRD4 bromodomain 1 (Homo sapiens (Human), UniProt O60885). Put plainly: Bromodomain binding assay (BRD4 Alpha-screen). Particulars: acetylated histone H4 peptide. How it is done:
Bromodomain binding assays were carried out in Reaction Biology (PA, USA) to test the degrees of the inventive compounds in inhibiting the human BRD4 bromodomain 1 by Alpha-screen assay method.
Recombinant human BRD4 bromodomain 1 expressed in E. coli with N-terminal His-tag was used as the enzyme target.
A synthetic peptide ([…]-GSGSK-biotin) containing 1 to 21th amino acids of histone H4 acetylated at lysine 5, 8, 12 and 16 and conjugated to biotin was purchased from Millipore.
BRD4-1 (44 to 170th amino acids; Genbank Accession # NM_058243) was expressed in E. coli with N-terminal His-tag (see, Ni-NTA spin Kit Handbook (Qiagen), second edition, January, 2008). Nickel-Chelate ALPHA acceptor beads (Perkin Elmer) were used to specifically bind BRD4-1, and ALPHA streptavidin donor beads (Perkin Elmer) were used because they specifically recognized the biotinylated H4 peptide.
BRD binding assays were performed in a mixture comprising 50 mM Hepes (pH7.5), 100 mM NaCl, 0.05% CHAPS, 0.1% BSA, and 1% DMSO. After an assay reaction time of 60 min at 25° C., binding was measured with streptavidin donor beads and nickel-chelate acceptor beads. ALPHA signal was detected on Enspire (Ex/Em=680/520-620 nm). IC50 values were calculated from the fit of the dose-response curves. All IC50 values represent geometric mean values of a minimum of four determinations. These assays generally produced results within 3-fold of the reported mean.
(In general: Alpha assays give light when donor and acceptor beads are brought close together.)

Data set [1] has as its system LnCAP (human prostatic adenocarcinoma cell line). In words: Anti-proliferative activity test (CellTiter-Glo), LnCAP. Particulars: first value of LnCAP/MV4-11 cell, read-out: Cell proliferation IC50 (LnCAP). In kind it is cell-based. How it is done: (§1) IC50 (uM) of the compounds obtained in Examples 1 to 18 against hematological cancer cells and solid tumors was measured for identifying anti-proliferative activities.
(§2) A human prostatic adenocarcinoma cell line, LnCAP (ATCC®, CRL-1740) and human leukemia cell line MV4-11 (ATCC®, CRL-9591) were used to test the degrees of the compounds 1 to 18 in inhibiting the cancer cell growth. The testing cell concentration was adjusted to 6.7×10^3 cells/ml with a culture medium supplemented with 10% FBS, in the temperature of 37° C., 5% CO2 and 95% humidity. Culture media and FBS were purchased from GIBCO. 90 μL of cell suspensions thus obtained was added to two 96-well plates with the final cell density of 600 cells/well, followed by addition of 10 μL of culture medium to each well of plate. The plates were incubated overnight in a humidified incubator at 37° C. with 5% CO2.
(§3) Compounds 1 to 18 were each dissolved with dimethylsulfoxide (DMSO) or phosphate buffer solution (PBS) as a stock solution, and 200× solutions of test compound (2 mM) using DMSO were prepared. Then, the DMSO solution thus obtained was diluted 20-fold with culture medium or PBS to obtain 10× working solution. 10 μL of 10× working solution (drug solution) was dispensed to each well (triplicate for each concentration). The final concentration of DMSO in culture medium was 0.5% [v/v].
(§4) Cell viability was determined using CellTiter-Glo® (CTG) assay. 100 μL of CellTiter-Glo® was added to the equal volume of the cultured cells to read luminescence in EnVision Multi Label Reader.
(In general: ATP-based viability assays read luminescence as a measure of living cells.)

In data set [2] the test system is MV4-11 (human leukemia cell line). In words: Anti-proliferative activity test (CellTiter-Glo), MV4-11. In kind it is cell-based. Conditions: second value of LnCAP/MV4-11 cell, read-out: Cell proliferation IC50 (MV4-11). On the procedure:
as §1, §2, §3, §4

The nature of data set [3]: Human liver microsomal stability/clearance. It is filed as in vitro ADME. Particulars: human liver microsomes; first value of Human/Mouse cell; read-out: Liver microsomal clearance (Human). How it is done:
(§5) Human and mouse liver microsomal clearance assays were carried out in CROWN Biosciences (Taicang, China). The human liver microsomes (Cat No. X008067, Lot No. KQB) and mouse liver microsomes (Cat No. M1000, Lot No. 1210302) were purchased from Celsis and Xenotech, respectively.
(§6) 5 μL of test compound stock solution was diluted with 495 μL of 1:1 Methanol/Water (final concentration: 100 μM, 50% MeOH) and combined with 534 μL of the respective liver microsome solution (final concentration: 1.111 μM, 0.555% MeOH). The final concentration of the liver microsome solution was 0.7 mg protein/mL.
(§7) Incubations of the liver microsome solutions were performed in a 96 well plate at 37° C. 90 μL of the liver microsome solutions were added to Blank, and 90 μL of working solution of the test compound was added to all plates except the Blank.
(§8) All plates thus obtained were warmed in water bath at 37° C. for 10 min, and 10 μL of NADPH co-factor solution comprising 42 mg of β-nicotinamide adenine dinucleotide phosphate (Sigma Cat. No. N0505 Lot 020M7009V), 84 mg of isocitric acid (Sigma Cat. No. 11252 Lot 119K1099) and 0.478 mL of isocitric dehydrogenase (Sigma Cat. No. 12002 Lot 086K7055, 15 units/mg protein, warmed in water bath at 37° C. for 5 min was added to the plates. The resulting plates were incubated at 37° C. in the following order: T60 (The test compounds were incubated with the liver microsomal solution and NADPH for 60 min at 37° C.), T30 (such as for 30 min.), and T10 (such as for 10 min.). 300 μL of a cold (4° C.) stop solution (acetonitrile (ACN) including 500 nM of tolbutamide as internal standard) and 10 μL of NADPH co-factor solution to starting plate (T0: 100% of the parent compound without any reaction) were added to the plates. The reaction was stopped by adding 300 μL of the cold (4° C.) stop solution to the other plates in the following order: T10 first, then T30 and T60.
(§9) The samples were centrifuged at 4,000 rpm for 20 min and transferred to Bioanalytical Services for liquid chromatography-mass spectrometry (LC-MS)/MS (Waters UPLC/API 4000, 10 μL injection) analysis.
Background: Liver microsomes are a subcellular fraction often used to study metabolism.

Data set [4] is described as follows: Mouse liver microsomal stability/clearance. It is filed as in vitro ADME. Conditions: mouse liver microsomes; second value of Human/Mouse cell; read-out: Liver microsomal clearance (Mouse). On the procedure: as §5, §6, §7, §8, §9
A further data set has as its system OPM-2 (multiple myeloma). In words: Anti-proliferative activity, OPM-2. In kind it is cell-based. Particulars: Homo sapiens, read-out: Cell proliferation, IC50.
Data set [5] deals with A375 (malignant melanoma). Put plainly: Anti-proliferative activity, A375. In kind it is cell-based. Conditions: Homo sapiens, A-375, read-out: Cell proliferation, IC50.
The test system of another data set is SK-LU-1 (adenocarcinoma). In words: Anti-proliferative activity, SK-LU-1. In kind it is cell-based. Particulars: Homo sapiens, SKLU-1 (Adenocarcinoma), read-out: Cell proliferation, IC50.
A short description of data set [6]: Animal pharmacokinetics in ICR mice. In kind it is in vivo. Conditions: ICR, mouse, 10 mg/kg. How it is done:
Pharmacokinetics of the compounds of 1, 2, 7, 8 11 and 15 were evaluated in ICR mice (6˜8 weeks, 20˜25 g) following intravenous (IV) administration at 10 mg/kg and per oral (PO) administration at 10 mg/kg dose level, respectively. Especially, the additional dose level of Compound 1 was 30 mg/kg.
For serum compound analysis, blood samples were collected by cardiac puncture over 24 hr time course. 20 μL of spiked plasma was added into a 96-well plate, adding ten volumes of internal standard (IS) in acetonitrile (ACN) to the obtained precipitated protein mixed thoroughly, centrifuged at 4,000 rpm for 10 min. 150 μL of supernatant thus obtained was transferred to another pre-labeled 96-well plate, mixed with 150 μL of water. 5 μL or 10 μL of the mixture was injected into the LC-MS system under the following conditions:
Column: API-4000+Waters UPLC (TCLM08);
Lower limit of quantification (LLOQ) was at 1 ng/mL. Pharmacokinetic parameters of half-life (T1/2), clearance (CL), maximum plasma concentration (Cmax), mean residence time (MRT) and bioavailability (F %), plasma exposure (AUC) of the compound were calculated using Phoenix WinNonlin 6.3 (non-compartmental model).

As to `CCS(=O)(=O)OC[C@@H]1N=C(c2ccc(Cl)cc2)c2cc(OC)ccc2-n2c(C)nnc21` [Compound 2, (R)-(6-(4-chlorophenyl)-8-methoxy-1-methyl-4H-benzo[f][1,2,4]triazolo[4,3-a][1,4]diazepin-4-yl)methyl ethanesulfonate], the IC50 on human BRD4 bromodomain 1 came to 220 nM; in data set [1], 600 nM; in [2] it was 410 nM; with OPM-2 (multiple myeloma), 650 nM; in [5], 9300 nM; in the data set with SK-LU-1 (adenocarcinoma), 1450 nM. Besides, the microsomal CLint at 1 µM in data set [3] amounted to 1.9 µL/min/mg; in [4] it was 8.1 µL/min/mg. The AUC was 73 µM·h in data set [6] (in vivo, IV) and 66 µM·h in data set [6] (in vivo, PO). Moreover, the MRT in data set [6] (in vivo, IV) worked out at 3.9 h; in data set [6] (in vivo, PO) it was 4.1 h. In data set [6] (in vivo, IV), this molecule gave a clearance of 4.9 mL/min/kg. Moreover, the bioavailability in data set [6] (in vivo, PO) is 89.8%.
Consider `COc1ccc2c(c1)C(c1ccc(C#N)cc1)=N[C@@H](COS(C)(=O)=O)c1nnc(C)n1-2` [Compound 7, (R)-(6-(4-cyanophenyl)-8-methoxy-1-methyl-4H-benzo[f][1,2,4]triazolo[4,3-a][1,4]diazepin-4-yl)methyl methanesulfonate], for which the IC50 at human BRD4 bromodomain 1 was 230 nM; in [1] it was 830 nM; in data set [2], 3340 nM. For the same molecule, the microsomal CLint at 1 µM in data set [3] was 2.1 µL/min/mg; in data set [4], 3.4 µL/min/mg. Moreover, the AUC in data set [6] (in vivo, IV) is 17.3 µM·h; in [6] (in vivo, PO), 8.19 µM·h. This molecule also came in with a clearance in data set [6] (in vivo, IV) of 22.5 mL/min/kg. In addition, the bioavailability in [6] (in vivo, PO) was found to be 47.4%.
For `COc1ccc2c(c1)C(c1ccc(Cl)cc1)=N[C@@H](COS(N)(=O)=O)c1nnc(C)n1-2` [Compound 8, (R)-(6-(4-chlorophenyl)-8-methoxy-1-methyl-4H-benzo[f][1,2,4]triazolo[4,3-a][1,4]diazepin-4-yl)methyl sulfamate], the IC50 came to 220 nM on human BRD4 bromodomain 1, 960 nM in [1] and 1490 nM in data set [2]. Further, the microsomal CLint at 1 µM in data set [3] and in data set [4] was 5 µL/min/mg throughout. The AUC in data set [6] (in vivo, IV) came to 41 µM·h; in data set [6] (in vivo, PO), 31.5 µM·h. In addition, the clearance in data set [6] (in vivo, IV) was 9 mL/min/kg. Also, the bioavailability in [6] (in vivo, PO) was 62.3%.
`Cc1nnc2n1-c1ccc(-c3cnn(C)c3)cc1C(c1ccc(Cl)cc1)=N[C@H]2COS(C)(=O)=O` [Compound 11, (R)-(6-(4-chlorophenyl)-1-methyl-8-(1-methyl-1H-pyrazol-4-yl)-4H-benzo[f][1,2,4]triazolo[4,3-a][1,4]diazepin-4-yl)methyl methanesulfonate]: the figures for the IC50 (at human BRD4 bromodomain 1; in data set [1]; in data set [2]) were 87 nM, 190 nM and 320 nM, respectively. Further, the microsomal CLint at 1 µM in [3] and in data set [4] was 8.6 µL/min/mg throughout. Further, the AUC worked out at 20 µM·h in data set [6] (in vivo, IV) and 11.7 µM·h in data set [6] (in vivo, PO). Also, the clearance in data set [6] (in vivo, IV) worked out at 16.8 mL/min/kg. Moreover, the bioavailability in [6] (in vivo, PO) is 58.4%.
As to `Cc1sc2c(c1C)C(c1ccc(Cl)cc1)=N[C@@H](COS(C)(=O)=O)c1nnc(C)n1-2` [Compound 15, (R)-(4-(4-chlorophenyl)-2,3,9-trimethyl-6H-thieno[3,2-f][1,2,4]triazolo[4,3-a][1,4]diazepin-6-yl)methyl methanesulfonate], the values for the IC50 (on human BRD4 bromodomain 1; in [1]; in data set [2]) were 100 nM, 480 nM and 500 nM, respectively. Also, the results for the microsomal CLint at 1 µM in [3] and in data set [4] were 20 µL/min/mg and 22 µL/min/mg, respectively. Besides, the area under the curve (AUC) came out at 27 µM·h in data set [6] (plasma, IV) and 31 µM·h in data set [6] (plasma, PO). For the same molecule, the MRT in [6] (plasma, IV) stood at 1.9 h; in data set [6] (plasma, PO), 2.5 h. For the same molecule, the clearance in [6] (plasma, IV) was 13.5 mL/min/kg. Also, the bioavailability in [6] (plasma, PO) is 105%.

As a reminder, the AUC is concentration integrated over time. A word on the MRT: it is a mean duration of stay, worked out from the concentration-time curve. A word on the clearance: it is the volume of plasma or blood freed of the substance per unit of time. A higher clearance goes with a high capacity for elimination.

(Values after patent US9884874B2, “Bromodomain-inhibiting compounds and pharmaceutical composition comprising same for preventing or treating a cancer” (KAINOS MEDICINE, INC., priority 2014, dated 2018).)
